According to patent US12247032B2, “Substituted pyrazolo[1,5-a]pyrimidines as inhibitors of JAK kinases” (Genentech, Inc., priority 2019, dated 2025):
Like-named read-outs stand apart in the source and are kept apart here.

Tests used:
[1] = biological target: T1, recombinant human JAK1 kinase domain protein (Residues 854-1154) (Homo sapiens, UniProt P23458); assay: JAK1 biochemical assay (microfluidic mobility shift, peptide phosphorylation); conditions: 25 μM ATP, 1 nM total JAK1; Ki calculated from Ki app (tight-binding, competitive); read-out: Biochem JAK1 Ki
T1 construct: human JAK1 kinase domain protein (Residues 854-1154); purchased Proteros Biostructures GmbH (Martinsried, Germany); host or cells: insect cells
T1 sequence (P23458 854-1154): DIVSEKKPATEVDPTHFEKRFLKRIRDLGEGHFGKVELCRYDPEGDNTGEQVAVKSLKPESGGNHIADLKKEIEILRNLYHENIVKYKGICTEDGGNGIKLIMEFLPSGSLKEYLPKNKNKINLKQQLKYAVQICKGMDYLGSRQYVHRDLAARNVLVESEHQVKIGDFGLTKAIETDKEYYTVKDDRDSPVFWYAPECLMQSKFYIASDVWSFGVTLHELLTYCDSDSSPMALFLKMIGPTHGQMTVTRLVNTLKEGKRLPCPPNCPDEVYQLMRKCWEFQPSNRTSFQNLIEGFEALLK
Protocol: (§1) The in vitro biochemical assays quantify JAK-catalyzed phosphorylation of a synthetic peptide, as detected using a LabChip® EZ Reader II microfluidic mobility shift instrument (PerkinElmer; Waltham, MA). The substrate peptide Y-1B has the sequence 5-FAM-VALVDGYFRLTT-NH2. Y-1B is fluorescently labeled on the N-terminus with 5-FAM (5-carboxyfluorescein) and contains a single tyrosine residue (Y) that can be phosphorylated by JAK activity. The substrate peptide stock is prepared in DMSO at 5 mM. Purified recombinant human JAK1 kinase domain protein (Residues 854-1154) was expressed in insect cells and procured from Proteros Biostructures GmbH (Martinsried, Germany). Recombinant human JAK2 kinase domain protein (Residues 812-1132) was expressed in insect cells and purified at Genentech, Inc. (South San Francisco, CA).
(§2) The kinase reaction mixtures contained 100 mM 4-(2-hydroxyethyl)-1-piperazineethanesulfonic acid (HEPES) buffer (pH 7.2), 10 mM magnesium chloride, 0.015% Brij® 35, 4 mM dithiothreitol, 1.5 μM Y-1B peptide substrate, 25 μM adenosine triphosphate (ATP), 1 nM total JAK1 or 0.2 nM total JAK2, and up to 1000 nM test compound in a final concentration of 2% (volume to volume [v/v]) DMSO. In each titration experiment, test compound was tested in duplicate at each of the twelve concentrations. Blank reactions contained ATP, peptide, and DMSO, but no JAK or test compound, whereas uninhibited control reactions contained ATP, peptide, JAK, and DMSO, but no test compound.
(§3) Peptide plus ATP mixture (24 μL) was added to 1 μL of test compound in DMSO (or DMSO alone). The reactions were initiated by adding 25 μL of JAK enzyme to the inhibitor/peptide/ATP mixture before thoroughly mixing the resultant solution. Reactions were incubated at room temperature (22° C.-23° C.) in a final volume of 50 μL per well in 384-well plates. After a 30-minute incubation, the reactions were stopped by adding 25 μL of 150 mM ethylenediaminetetraacetic acid in 100 mM HEPES buffer (pH 7.2) containing 0.015% Brij 35 to each well.
(§4) In each reaction, the residual Y-1B substrate and the phospho-peptide product generated were separated using the EZ Reader 1 instrument. Electrophoretic separation of molecules of product from molecules of substrate was achieved using downstream and upstream voltages of −500 and −2600 V, respectively, at an operating pressure of −1.3 psi. The 5-FAM group present on both the substrate and product peptides was excited at 488 nm, the fluorescence was detected at 530 nm, and the peak heights were reported.
(§5) The extent (or percent) of conversion of substrate to product was calculated from the corresponding peak heights in the electropherogram using HTS Well Analyzer software, Version 5.2 (PerkinElmer), and the following equation (Equation 1): % conversion=[P[…](S+P)]×100 Equation 1 where S and P represent the peak heights of the substrate and product, respectively. After any baseline signal from blank wells containing no JAK was subtracted from the signal of all test wells, the % conversion data were converted to fractional activity as shown in Equation 2, where νi and νo are the % conversion in the presence and absence of test compound, respectively. The % conversion observed in the uninhibited control reactions containing JAK and DMSO vehicle, but no test compound, was defined to have fractional activity=1 (with no inhibitor present, νi=νo), whereas blank wells with no JAK were defined as having fractional activity=0. Fractional activity was plotted against test compound concentration and the data were fitted using XLfit software (IDBS; Guildford, United Kingdom) to a tight-binding apparent inhibition constant (Ki^app) quadratic equation (see Equation 2) (Williams J W, Morrison J F. The kinetics of reversible tight-binding inhibition. Methods Enymol 1979; 63:437-67), which was used to calculate fractional activity and Ki^app […]

[2] = system: JAK1 (IL-13-stimulated STAT6 phosphorylation in BEAS-2B cells); assay: P-STAT6 BEAS-2B+IL-13 cell assay; format: cell-based, human; conditions: 1 hour compound, IL-13 15 minutes, IC50 by four-parameter fit, read-out: Cellular JAK1 PSTAT6 BEAS2B + IL13
Protocol: In order to study the effect of JAK1 inhibitors in a cell line that is relevant to the cell biology of human asthma, an IL-13-stimulated STAT6 phosphorylation assay in the human lung bronchial epithelial BEAS-2B cell line was developed.
BEAS-2B cells (ATCC® CRL-9609™) were grown in Bronchial Epithelial Growth Medium (BEGM) (Lonza Catalog No. CC-3170; Walkersville, MD; or PromoCell Catalog No. C-21060; Heidelberg, Germany). Test compound stock solutions (0.5 mM in DMSO) were serially diluted 1:2 in DMSO to generate a 10-point concentration curve (at 500× test concentration), which was further diluted by a 50-fold dilution step in BEGM to generate a 10× concentration curve (in 2% DMSO). Cells were plated at 100,000 cells/well in 200 μL of BEGM in 96-well plates and incubated for 48 hours at 37° C. in a humidified incubator. Medium was aspirated from the cells and replaced with 70 μL of fresh BEGM. Diluted test compound (10 μL; or 2% DMSO in assay medium) was added to the cells, and the plates were incubated for 1 hour at 37° C. in a humidified incubator. Twenty μL of 250 ng/mL human recombinant IL-13 (Bio Techne Catalog No. 213-ILB) was then added to the cells and incubated for 15 minutes at 37° C. Medium was aspirated from the cells and 60 μL of ice-cold 1×cell lysis buffer (Cell Signaling Technologies; Catalog No. 9803S) containing 1 mM PMSF was added to the cells. Assay plates were incubated at −80° C. for at least 1 hour. P-STAT6 was measured by coating GAR plates (MSD; Catalog No. L45RA-1) with rabbit anti-human total STAT6 antibody (Cell Signaling Technologies; Catalog No. 9362S), incubating the cell lysates in the coated plates overnight at 4° C., and then detecting with mouse anti-phospho-STAT6 (Tyr641) Clone 16E12 antibody (Millipore; Catalog No. 05-590, custom labeled by MSD with SULFO-tag) using standard MSD plate processing, washing, and detection protocols. Plates were read on the MESO SECTOR S600.
Data analysis was performed by subtracting negative control values from all wells and determining percent of control using the positive control values; the IC50 was determined with a four-parameter logistic fit model as shown in Equation 4.

[3] = biological target: T2, Recombinant human JAK2 kinase domain protein (Residues 812-1132) (Homo sapiens, UniProt O60674); assay: JAK2 biochemical assay (microfluidic mobility shift, peptide phosphorylation); conditions: 25 μM ATP, 0.2 nM total JAK2; Ki calculated from Ki app (tight-binding, competitive); read-out: Biochem JAK2 Ki
T2 construct: human JAK2 kinase domain protein (Residues 812-1132); made in house; host or cells: insect cells
T2 sequence (O60674 812-1132): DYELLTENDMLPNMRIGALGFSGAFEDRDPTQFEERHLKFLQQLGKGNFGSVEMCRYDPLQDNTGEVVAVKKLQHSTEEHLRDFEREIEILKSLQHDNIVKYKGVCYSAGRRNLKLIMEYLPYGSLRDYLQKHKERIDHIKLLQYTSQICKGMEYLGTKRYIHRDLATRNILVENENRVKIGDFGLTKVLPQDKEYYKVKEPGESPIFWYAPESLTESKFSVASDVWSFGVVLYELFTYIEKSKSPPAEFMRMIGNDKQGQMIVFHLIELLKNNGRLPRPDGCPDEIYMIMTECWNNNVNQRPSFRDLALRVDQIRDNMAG
Protocol: as §1, §2, §3, §4, §5

SMILES	Ki [1]	Ki [3]	IC50 ([2]; formic acid)	IC50 ([2]; Homo sapiens, BEAS-2B, 1 h)	IC50 [2]
CN(C)CCN1CC(n2nnc(Cn3cc(NC(=O)c4cnn5cccnc45)c(-c4cc(C5CC5)ccc4OC(F)F)n3)n2)C1 [Example 50, N-[3-[5-cyclopropyl-2-(difluoromethoxy)phenyl]-1-[[2-[1-[2-(dimethylamino)ethyl]azetidin-3-yl]tetrazol-5-yl]methyl]pyrazol-4-yl]pyrazolo[1,5-a]pyrimidine-3-carboxamide]	0.5 nM	0.44 nM		16 nM	
O=C(Nc1cn(Cc2nnn(CCN3CCOCC3)n2)nc1-c1cc(Cl)ccc1OC(F)F)c1cnn2cccnc12 [Example 2, N-[3-[5-chloro-2-(difluoromethoxy)phenyl]-1-[[2-(2-morpholinoethyl)tetrazol-5-yl]methyl]pyrazol-4-yl]pyrazolo[1,5-a]pyrimidine-3-carboxamide]	0.54 nM	0.29 nM		14 nM	
O=C(Nc1cn(Cc2nnn(C3CCN(C4CCOCC4)CC3)n2)nc1-c1cc(Cl)ccc1OC(F)F)c1cnn2cccnc12 [Example 9, N-[3-[5-chloro-2-(difluoromethoxy)phenyl]-1-[[2-(1-tetrahydropyran-4-yl-4-piperidyl)tetrazol-5-yl]methyl]pyrazol-4-yl]pyrazolo[1,5-a]pyrimidine-3-carboxamide]	0.48 nM	0.24 nM		13 nM	
CN1CCC[C@H]1Cn1nnnc1Cn1cc(NC(=O)c2cnn3cccnc23)c(-c2cc(OC(F)F)ccc2OC(F)F)n1 (racemic) [Example 54, N-[3-[2,5-bis(difluoromethoxy)phenyl]-1-[[1-[[rac-(2S)-1-methylpyrrolidin-2-yl]methyl]tetrazol-5-yl]methyl]pyrazol-4-yl]pyrazolo[1,5-a]pyrimidine-3-carboxamide]	0.75 nM	0.45 nM		51 nM	

Continued, in another order:

Ki [1]	Ki [3]	SMILES	IC50 ([2]; formic acid)	IC50 ([2]; Homo sapiens, BEAS-2B, 1 h)	IC50 [2]
0.54 nM	0.47 nM	CN(C)CCN(C)C1CC(n2nnc(Cn3cc(NC(=O)c4cnn5cccnc45)c(-c4cc(OC(F)F)ccc4OC(F)F)n3)n2)C1 (single isomer, unassigned) [Example 82, N-[3-[2,5-bis(difluoromethoxy)phenyl]-1-[[2-[3-[2-(dimethylamino)ethyl-methyl-amino]cyclobutyl]tetrazol-5-yl]methyl]pyrazol-4-yl]pyrazolo[1,5-a]pyrimidine-3-carboxamide; formic acid]	32 nM		
0.81 nM	0.65 nM	CN1CC(N(C)CCn2nnnc2Cn2cc(NC(=O)c3cnn4cccnc34)c(-c3cc(OC(F)F)ccc3OC(F)F)n2)C1 [Example 45, N-[3-[2,5-bis(difluoromethoxy)phenyl]-1-[[1-[2-[methyl-(1-methylazetidin-3-yl)amino]ethyl]tetrazol-5-yl]methyl]pyrazol-4-yl]pyrazolo[1,5-a]pyrimidine-3-carboxamide]		81 nM	
0.43 nM	0.25 nM	CN1CCC(n2nnc(Cn3cc(NC(=O)c4cnn5cccnc45)c(-c4cc(OC(F)F)ccc4OC(F)F)n3)n2)C1 (single isomer, unassigned) [Example 29, N-[3-[2,5-bis(difluoromethoxy)phenyl]-1-[[2-(1-methylpyrrolidin-3-yl)tetrazol-5-yl]methyl]pyrazol-4-yl]pyrazolo[1,5-a]pyrimidine-3-carboxamide]		15 nM	
0.77 nM	0.8 nM	NCCN1CCC(n2nnc(Cn3cc(NC(=O)c4cnn5cccnc45)c(-c4cc(OC(F)F)ccc4OC(F)F)n3)n2)CC1 [Example 25, N-[1-[[2-[1-(2-aminoethyl)-4-piperidyl]tetrazol-5-yl]methyl]-3-[2,5-bis(difluoromethoxy)phenyl]pyrazol-4-yl]pyrazolo[1,5-a]pyrimidine-3-carboxamide]		300 nM	
0.41 nM	0.38 nM	CN(C)CCCN1CC(n2nnnc2Cn2cc(NC(=O)c3cnn4cccnc34)c(-c3cc(OC(F)F)ccc3OC(F)F)n2)C1 [Example 65, N-[3-[2,5-bis(difluoromethoxy)phenyl]-1-[[1-[1-[3-(dimethylamino)propyl]azetidin-3-yl]tetrazol-5-yl]methyl]pyrazol-4-yl]pyrazolo[1,5-a]pyrimidine-3-carboxamide]		660 nM	
0.48 nM	0.32 nM	CN1CCC[C@H]1Cn1nnc(Cn2cc(NC(=O)c3cnn4cccnc34)c(-c3cc(OC(F)F)ccc3OC(F)F)n2)n1 (stereo in doubt) [Example 53, N-[3-[2,5-bis(difluoromethoxy)phenyl]-1-[[2-[[rac-(2S)-1-methylpyrrolidin-2-yl]methyl]tetrazol-5-yl]methyl]pyrazol-4-yl]pyrazolo[1,5-a]pyrimidine-3-carboxamide]		35 nM	
0.38 nM	0.39 nM	CN1CCC[C@H]1CN1CC(n2nnc(Cn3cc(NC(=O)c4cnn5cccnc45)c(-c4cc(OC(F)F)ccc4OC(F)F)n3)n2)C1 (racemic) [Example 52, N-[3-[2,5-bis(difluoromethoxy)phenyl]-1-[[2-[1-[[rac-(2R)-1-methylpyrrolidin-2-yl]methyl]azetidin-3-yl]tetrazol-5-yl]methyl]pyrazol-4-yl]pyrazolo[1,5-a]pyrimidine-3-carboxamide]			19 nM
